Results published in patent publication US20220241249A1, “PHARMACEUTICAL COMPOSITION AND KIT CONTAINING NOVEL PENAM DERIVATIVE OR SALT THEREOF AND ONE OR MORE COMPOUNDS SELECTED FROM beta-LACTAMASE INHIBITORY COMPOUND AND ANTIBACTERIAL COMPOUND OR SALTS THEREOF” (priority 2019, published 2022).
Values after ≈ are worked out from the molar mass of the structure shown.

Experiments:
Experiment in all cases: Antibacterial activity evaluation test, MIC by broth microdilution (CLSI)
Format in all cases: cell-based
[1] = test system: AmpC-derepressed Pseudomonas aeruginosa mutant strain (S-3028); conditions: for MIC: Pseudomonas aeruginosa
Procedure: (§1) The minimum inhibitory concentration (MIC) was measured according to the Clinical and Laboratory Standards Institute (CLSI) standard method by using the following broth microdilution method.
(§2) As bacteria, a Pseudomonas aeruginosa strain ATCC27853, an AmpC-derepressed Pseudomonas aeruginosa mutant strain (S-3028), an IMP-1-containing Pseudomonas aeruginosa strain (S-2838), a VIM-2-containing Pseudomonas aeruginosa strain (S-3779), a GES-19 and GES-20-containing Pseudomonas aeruginosa strain (S-3759), a CTX-M-15-containing Escherichia coli strain (TK-1747), a KPC-2-containing Klebsiella pneumoniae strain (Y-995), an OXA-48-containing Klebsiella pneumoniae strain (Y-1062), and an NDM-1-containing Klebsiella pneumoniae strain (Y-1007) were used. The test bacterial cells that had been cultured overnight on a Mueller Hinton agar medium were scraped off, suspended at a density equivalent to 0.5 McFarland standard, and diluted 10-fold, thereby obtaining an inoculum. A cation-adjusted Mueller Hinton medium containing a test compound was inoculated with 0.005 mL of the inoculum, and the cells were cultured at 35° C. for 16 to 20 hours. The minimum drug concentration at which the growth of bacteria was not visually observed was defined as MIC (μg/mL).
(§3) An antibacterial activity evaluation test was performed in the same manner as in Test Example 1.

[2] = test system: CTX-M-15-containing Escherichia coli strain (TK-1747); conditions: for MIC: Escherichia coli
Procedure: as §1, §2, §3

[3] = test system: GES-19 and GES-20-containing Pseudomonas aeruginosa strain (S-3759); conditions: for MIC: Pseudomonas aeruginosa
Procedure: as §1, §2, §3

[4] = test system: IMP-1-containing Pseudomonas aeruginosa strain (S-2838); conditions: for MIC: Pseudomonas aeruginosa
Procedure: as §1, §2, §3

[5] = test system: KPC-2-containing Klebsiella pneumoniae strain (Y-995); conditions: for MIC: Klebsiella pneumoniae
Procedure: as §1, §2, §3

[6] = test system: NDM-1-containing Klebsiella pneumoniae strain (Y-1007); conditions: for MIC: Klebsiella pneumoniae
Procedure: as §1, §2, §3

[7] = test system: OXA-48-containing Klebsiella pneumoniae strain (Y-1062); conditions: for MIC: Klebsiella pneumoniae
Procedure: as §1, §2, §3

[8] = test system: Pseudomonas aeruginosa strain ATCC27853; conditions: Pseudomonas aeruginosa, ATCC27853
Procedure: as §1, §2, §3

[9] = test system: VIM-2-containing Pseudomonas aeruginosa strain (S-3779); conditions: for MIC: Pseudomonas aeruginosa
Procedure: as §1, §2, §3

| SMILES | MIC [1] [µg/mL] | MIC [2] [µg/mL] | MIC [3] [µg/mL] | MIC [4] [µg/mL] | MIC [5] [µg/mL] | MIC [6] [µg/mL] | MIC [7] [µg/mL] | MIC [8] [µg/mL] | MIC [9] [µg/mL] | Antibacterial activity (MIC) Pseudomonas aeruginosa S-3028 [1] [µg/mL] | Antibacterial activity (MIC) Escherichia coli TK-1747 [2] [µg/mL] | Antibacterial activity (MIC) Pseudomonas aeruginosa S-3759 [3] [µg/mL] | Antibacterial activity (MIC) Pseudomonas aeruginosa S-2838 [4] [µg/mL] | Antibacterial activity (MIC) Klebsiella pneumoniae Y-995 [5] [µg/mL] | Antibacterial activity (MIC) Klebsiella pneumoniae Y-1007 [6] [µg/mL] | Antibacterial activity (MIC) Klebsiella pneumoniae Y-1062 [7] [µg/mL] | Antibacterial activity (MIC) Pseudomonas aeruginosa ATCC 27853 [8] [µg/mL] | Antibacterial activity (MIC) Pseudomonas aeruginosa S-3779 [9] [µg/mL] |
| --- | --- | --- | --- | --- | --- | --- | --- | --- | --- | --- | --- | --- | --- | --- | --- | --- | --- | --- |
| CC(C)(O/N=C(\C(=O)N[C@@H]1C(=O)N2C[C@@](C(=O)O)(n3cc(CNC(=O)c4ccc(O)c(O)c4Cl)nn3)S[C@H]12)c1csc(N)n1)C(=O)O [Example 74, (3R,5R,6R)-6-((Z)-2-(2-aminothiazol-4-yl)-2-(((2-carboxypropan-2-yl)oxy)imino)acetamido)-3-(4-((2-chloro-3,4-dihydroxybenzamido)methyl)-1H-1,2,3-triazol-1-yl)-7-oxo-4-thia-1-azabicyclo[3.2.0]heptane-3-carboxylic acid] | 0.5 (≈ 0.704 µM) | 1 (≈ 1.41 µM) | 1 (≈ 1.41 µM) | 0.25 (≈ 0.352 µM) | 2 (≈ 2.82 µM) | 0.25 (≈ 0.352 µM) | 4 (≈ 5.63 µM) | 0.5 (≈ 0.704 µM) | 1 (≈ 1.41 µM) | – | – | – | – | – | – | – | – | – |
| Nc1nc(/C(=N/O[C@@H](CO)C(=O)O)C(=O)NC2C(=O)N3C[C@@](C(=O)O)(N4CCN(NC(=O)C(=O)c5ccc(O)c(O)c5Cl)C4=O)S[C@H]23)cs1 (stereo partly drawn) [Example 113, (3R,5R,6R)-6-((Z)-2-(2-aminothiazol-4-yl)-2-(((S)-1-carboxy-2-hydroxyethoxy)imino)-acetamido)-3-(3-(2-(2-chloro-3,4-dihydroxy-phenyl)-2-oxoaceta-mido)-2-oxoimidazol-idin-1-yl)-7-oxo-4-thia-1-azabicyclo[3.2.0]-heptane-3-carboxylic acid] | 0.25 (≈ 0.336 µM) | < 0.06 | 1 (≈ 1.35 µM) | 0.5 (≈ 0.673 µM) | 0.12 (≈ 0.161 µM) | < 0.06 | 0.25 (≈ 0.336 µM) | 4 (≈ 5.38 µM) | 0.5 (≈ 0.673 µM) | – | – | – | – | – | – | – | – | – |
| CC(C)(O/N=C(\C(=O)N[C@@H]1C(=O)N2C[C@@](C(=O)O)(N3CC(=O)N(NC(=O)C(=O)c4ccc(O)c(O)c4Cl)CC3=O)S[C@H]12)c1csc(N)n1)C(=O)O [Example 82, (3R,5R,6R)-6-((Z)-2-(2-aminothiazol-4-yl)-2-(((2-carboxypropan-2-yl)oxy)imino)acetamido)-3-(4-(2-(2-chloro-3,4-dihydroxyphenyl)-2-oxoacetamido)-2,5-dioxopiperazin-1-yl)-7-oxo-4-thia-1-azabicyclo[3.2.0]heptane-3-carboxylic acid] | 4 (≈ 5.2 µM) | 1 (≈ 1.3 µM) | 2 (≈ 2.6 µM) | 4 (≈ 5.2 µM) | 4 (≈ 5.2 µM) | 0.5 (≈ 0.65 µM) | 2 (≈ 2.6 µM) | 0.5 (≈ 0.65 µM) | 1 (≈ 1.3 µM) | – | – | – | – | – | – | – | – | – |
| CC(C)(O/N=C(\C(=O)N[C@@H]1C(=O)N2C[C@@](C(=O)O)(N3CCN(NC(=O)C(=O)NNC(=O)C(=O)c4ccc(O)c(O)c4Cl)C3=O)S[C@H]12)c1csc(N)n1)C(=O)O [Example 88, (3R,5R,6R)-6-((Z)-2-(2-aminothiazol-4-yl)-2-(((2-carboxypropan-2-yl)oxy)imino)acetamido)-3-(3-(2-(2-(2-(2-chloro-3,4-dihydroxyphenyl)-2-oxoacetyl)hydradienyl)-2-oxoacetamido)-2-oxoimidazolidin-1-yl)-7-oxo-4-thia-1-azabicyclo[3.2.0]heptane-3-carboxylic acid] | 0.5 (≈ 0.604 µM) | 2 (≈ 2.42 µM) | 0.5 (≈ 0.604 µM) | 0.5 (≈ 0.604 µM) | 0.25 (≈ 0.302 µM) | < 0.06 | 0.5 (≈ 0.604 µM) | 0.5 (≈ 0.604 µM) | 0.5 (≈ 0.604 µM) | – | – | – | – | – | – | – | – | – |
| CC(C)(O/N=C(\C(=O)NC1C(=O)N2C[C@@](C(=O)O)(N3CCN(NC(=O)NNC(=O)C(=O)c4ccc(O)c(O)c4Cl)C3=O)S[C@H]12)c1csc(N)n1)C(=O)O (stereo partly drawn) [Example 153] | – | – | – | – | – | – | – | – | – | 0.12 | 0.5 | 2 | 0.5 | 0.25 | < 0.06 | 4 | 0.5 | 1 |
| Nc1nc(/C(=N/OC2(C(=O)O)CC2)C(=O)N[C@@H]2C(=O)N3C[C@@](C(=O)O)(N4CCN(NC(=O)c5ccc(O)c(O)c5Cl)C4=O)S[C@H]23)cs1 [Example 8, (3R,5R,6R)-6-((Z)-2-(2-aminothiazol-4-yl)-2-((1-carboxycyclopropoxy)imino)acetamido)-3-(3-(2-chloro-3,4-dihydroxybenzamido)-2-oxoimidazolidin-1-yl)-7-oxo-4-thia-1-azabicyclo[3.2.0]heptane-3-carboxylic acid] | 0.5 (≈ 0.703 µM) | 0.12 (≈ 0.169 µM) | 2 (≈ 2.81 µM) | 4 (≈ 5.63 µM) | 0.06 (≈ 0.0844 µM) | < 0.06 | 16 (≈ 22.5 µM) | 0.25 (≈ 0.352 µM) | 1 (≈ 1.41 µM) | – | – | – | – | – | – | – | – | – |
| CC(C)(O/N=C(\C(=O)N[C@@H]1C(=O)N2C[C@@](C(=O)O)(N3CCN(NC(=O)C(=O)c4ccc(O)c(O)c4Cl)C3=O)S[C@H]12)c1csc(N)n1)C(=O)O [Example 20, (3R,5R,6R)-6-((Z)-2-(2-aminothiazol-4-yl)-2-(((2-carboxypropan-2-yl)oxy)imino)acetamido)-3-(3-(2-(2-chloro-3,4-dihydroxyphenyl)-2-oxoacetamido)-2-oxoimidazolidin-1-yl)-7-oxo-4-thia-1-azabicyclo[3.2.0]heptane-3-carboxylic acid] | 0.25 (≈ 0.337 µM) | < 0.06 | 0.5 (≈ 0.675 µM) | 0.12 (≈ 0.162 µM) | 0.12 (≈ 0.162 µM) | < 0.06 | 0.5 (≈ 0.675 µM) | 0.5 (≈ 0.675 µM) | 0.25 (≈ 0.337 µM) | – | – | – | – | – | – | – | – | – |
| Nc1nc(/C(=N/OC2(C(=O)O)CCC2)C(=O)N[C@@H]2C(=O)N3C[C@@](C(=O)O)(N4CCN(NC(=O)C(=O)c5ccc(O)c(O)c5Cl)C4=O)S[C@H]23)c(Cl)s1 [Example 78, (3R,5R,6R)-6-((Z)-2-(2-amino-5-chlorothiazol-4-yl)-2-((1-carboxycyclobutoxy)imino)acetamido)-3-(3-(2-(2-chloro-3,4-dihydroxyphenyl)-2-oxoacetamido)-2-oxoimidazolidin-1-yl)-7-oxo-4-thia-1-azabicyclo[3.2.0]heptane-3-carboxylic acid] | < 0.06 | 0.25 (≈ 0.317 µM) | 1 (≈ 1.27 µM) | 1 (≈ 1.27 µM) | 0.25 (≈ 0.317 µM) | < 0.06 | 0.25 (≈ 0.317 µM) | 0.5 (≈ 0.635 µM) | 0.25 (≈ 0.317 µM) | – | – | – | – | – | – | – | – | – |
| CC(C)(O/N=C(\C(=O)NC1C(=O)N2C[C@@](C(=O)O)(N3CCN(NC(=O)C(=O)c4cc(O)c(O)cc4F)C3=O)S[C@H]12)c1csc(N)n1)C(=O)O (stereo partly drawn) [Example 147, (3R,5R,6R)-6-((Z)-2-(2-aminothiazol-4-yl)-2-(((2-carboxypropan-2-yl)oxy)imino)aceta-mido)-3-(3-(2-(2-fluoro-4,5-dihydroxy-phenyl)-2-oxoaceta-mido)-2-oxoimidazol-idin-1-yl)-7-oxo-4-thia-1-azabicyclo[3.2.0]-heptane-3-carboxylic acid] | – | – | – | – | – | – | – | – | – | 0.5 | 1 | 1 | 4 | 0.25 | < 0.06 | 4 | 1 | 1 |
| CC(C)(O/N=C(\C(=O)N[C@@H]1C(=O)N2C[C@@](C(=O)O)(N3CC(CNC(=O)c4ccc(O)c(O)c4Cl)OC3=O)S[C@H]12)c1csc(N)n1)C(=O)O (stereo partly drawn) [Example 73, (3R,5R,6R)-6-((Z)-2-(2-aminothiazol-4-yl)-2-(((2-carboxypropan-2-yl)oxy)imino)acetamido)-3-(5-((2-chloro-3,4-dihydroxybenzamido)methyl)-2-oxooxazolidin-3-yl)-7-oxo-4-thia-1-azabicyclo[3.2.0]heptane-3-carboxylic acid] | 0.25 (≈ 0.343 µM) | 0.25 (≈ 0.343 µM) | 0.5 (≈ 0.687 µM) | 0.5 (≈ 0.687 µM) | 16 (≈ 22 µM) | 0.12 (≈ 0.165 µM) | 1 (≈ 1.37 µM) | 0.5 (≈ 0.687 µM) | 1 (≈ 1.37 µM) | – | – | – | – | – | – | – | – | – |
| CC(C)(O/N=C(\C(=O)N[C@@H]1C(=O)N2C[C@@](C(=O)O)(n3ncn(NC(=O)C(=O)c4ccc(O)c(O)c4Cl)c3=O)S[C@H]12)c1csc(N)n1)C(=O)O [Example 26, (3R,5R,6R)-6-((Z)-2-(2-aminothiazol-4-yl)-2-(((2-carboxypropan-2-yl)oxy)imino)acetamido)-3-(4-(2-(2-chloro-3,4-dihydroxyphenyl)-2-oxoacetamido)-5-oxo-4,5-dihydro-1H-1,2,4-triazol-1-yl)-7-oxo-4-thia-1-azabicyclo[3.2.0]heptane-3-carboxylic acid] | 0.12 (≈ 0.162 µM) | 0.12 (≈ 0.162 µM) | 0.25 (≈ 0.338 µM) | 0.25 (≈ 0.338 µM) | 0.12 (≈ 0.162 µM) | < 0.06 | 0.5 (≈ 0.676 µM) | 1 (≈ 1.35 µM) | 0.25 (≈ 0.338 µM) | – | – | – | – | – | – | – | – | – |
